PMC10688702, “The indole motif is essential for the antitrypanosomal activity of N^5-substituted paullones” (PLOS ONE, 2023)

Experiments:
[1] = Kinetic aqueous solubility by nephelometry; assay type: physicochemical; settings: phosphate-buffered saline, aqueous buffer, kinetic from dmso stock, PBS pH 7.4, 1% DMSO, 25°C, logS = decadic logarithm of molar solubility [M]
Procedure: (§1) Phosphate-buffered saline pH 7.4 was prepared according to the European Pharmacopeia 10.4 by dissolving 2.38 g sodium monohydrogen phosphate dodecahydrate, 0.19 g potassium dihydrogen phosphate and 8.0 g sodium chloride in demineralised water (to a total volume of 1000 mL). The pH was adjusted to a value of 7.4 with hydrochloric acid. The buffer was filtered through a 0.45 μm membrane filter (Chromafil® Xtra PES-45/25) before use.
The kinetic aqueous solubility was determined by nephelometry. The measurements were performed on the NEPHELOstar Plus, with accompanying software Omega 5.11 and MARS 3.20 (BMG LABTECH, Ortenberg, Germany). Generally, 2 dilution series of 1–2 weighed portions of each substance were measured. First, stock solutions of the compounds were prepared in DMSO. A series of dilutions in DMSO were prepared from one stock solution to obtain at least 3 concentrations below and 3 concentrations above the precipitation point in the measured series. The specific concentrations were usually measured as duplicates.
The 96-well plate (Corning UV transparent flat-bottom 96-well plate, Corning Incorporated, Kennenbunk, ME, USA) was inspected for contamination and scratches and measured without samples prior to the solubility measurement of the compounds. 198 μL of phosphate-buffered saline pH 7.4 was placed in a 96 well plate for each well to be measured. 2 μL of a DMSO solution was added and immediately mixed by moving the pipette plunger. This solution either contained no substance—and served as a blank for the measurement (3 wells)—or the respective DMSO dilution of the substance (2–4 wells). The concentration of the solvent DMSO in each measured solution was 1%. The concentration of the compound corresponds to a 1:100 dilution compared to the respective DMSO dilution. The well plate bottom was cleaned with a lint-free cloth and compressed air and inspected for impurities before measurement. After shaking at 500 rpm for 10 s (double orbital), the measurement was carried out in the nephelometer with the laser intensity set to 80% and beam focus of 2.5 mm at a temperature of 25°C.
The obtained measuring points, relative nephelometric units (RNU) per compound concentration, were used to model two straight lines: one straight line with constant low readings and slope → 0 characterises the concentration range where no precipitation has taken place yet; The other straight line has a steep slope and increase of the RNU per concentration and characterises the concentrations at which precipitation takes place in the respective sample vessels.
The evaluation was carried out by calculating the two straight lines and their point of intersection. Outliers and values in a saturation range for the kick-off curve (usually >800 kRNU) were not used to create the straight lines and are listed separately in the evaluation file. […] The x-value of the intersection of the two straight lines represents the kinetic solubility. The results of two dilution series are additionally indicated as range (in brackets). For measurements of 3 or more series, a mean value with standard deviation is provided. The logS value describes the decadic logarithm of the molar solubility: logS (molar solubility [M]).

[2] = target: T1, trypanothione synthetase of L. infantum (LiTryS) (Leishmania infantum, UniProt A4I2Z3); test: TryS activity screening assay on recombinant LiTryS; assay type: biochemical; settings: read-out: LiTryS activity [% at 30 μM]
T1 sequence (A4I2Z3 entry or part of it): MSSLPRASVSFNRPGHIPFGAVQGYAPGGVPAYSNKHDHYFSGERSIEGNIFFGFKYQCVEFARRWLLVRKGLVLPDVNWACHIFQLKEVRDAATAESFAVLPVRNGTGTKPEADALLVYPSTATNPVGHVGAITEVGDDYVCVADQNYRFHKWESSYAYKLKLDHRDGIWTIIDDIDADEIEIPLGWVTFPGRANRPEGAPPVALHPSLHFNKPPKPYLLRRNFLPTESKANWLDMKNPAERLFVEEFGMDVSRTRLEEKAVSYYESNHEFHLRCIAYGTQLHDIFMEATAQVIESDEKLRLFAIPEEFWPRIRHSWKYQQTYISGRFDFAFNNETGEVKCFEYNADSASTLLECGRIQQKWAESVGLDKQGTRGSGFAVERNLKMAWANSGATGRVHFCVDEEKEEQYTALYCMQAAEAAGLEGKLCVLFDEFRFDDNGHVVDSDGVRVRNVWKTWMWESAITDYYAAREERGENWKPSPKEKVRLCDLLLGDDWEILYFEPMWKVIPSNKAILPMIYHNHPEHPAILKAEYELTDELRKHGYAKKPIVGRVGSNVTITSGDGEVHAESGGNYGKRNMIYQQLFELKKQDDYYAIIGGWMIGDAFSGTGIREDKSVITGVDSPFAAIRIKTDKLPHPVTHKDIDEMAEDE
Summary of the method: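 N-His-tagged TryS from E. coli, purified by IMAC and SEC; end-point reaction with 150 μM ATP, 2 mM Spd, GSH 0.05 mM (TbTryS) or 0.25 mM (LiTryS), enzyme 3*10^−5 (TbTryS) or 2*10^−5 (LiTryS) μmol*min^-1*mL^-1. Stopped after 15 min with BIOMOL GREEN; A650 activity relative to blank-corrected DMSO control.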

[3] = Thermodynamic aqueous solubility, shake-flask method and HPLC-UV; assay type: physicochemical; settings: phosphate-buffered saline, aqueous buffer, thermodynamic from solid, PBS pH 7.4, 25°C, up to 72 h, HPLC-UV, logS of molar solubility [M]
Procedure: as §1
The thermodynamic aqueous solubility was determined by a miniaturised shake-flask method. […] A negative control with the buffer (400 μL) was incubated for every time point and measured likewise. After incubation for 24 h, 48 h and 72 h, the vials were checked for undissolved compound; then the filter plunger was punched into the vial for filtration. […] The calibration curve was obtained from at least three dilutions and five measuring points from a DMSO stock solution of the respective compound.

[4] = tested on: Crithidia fasciculata TryS (CfTryS); design: method as in ref 24–26 = [24]; 24 Stuhlmann F, Jäger T, Flohé L, Schinzer D, inventors. N 5 -substituted benzo[2,3]azepino[4,5- b ]indol-6-ones for treating tropical diseases. European Patent Office patent EP 1 757 607 A1. 2007 Feb || [25]; PMID 27070550; doi:10.1371/journal.pntd.0004617; 25 Benítez D , Medeiros A , Fiestas L , Panozzo-Zenere EA , Maiwald F , Prousis KC , et al . Identification of novel chemical scaffolds inhibiting trypanothione synthetase from pathogenic trypanosomat || [26]; PMID 32588679; doi:10.1080/14756366.2020.1780227; 26 Medeiros A , Benítez D , Korn RS , Ferreira VC , Barrera E , Carrión F , et al . Mechanistic and biological characterisation of novel N 5 -substituted paullones targeting the biosynthesis of trypan; settings: cited from earlier work
[5] = tested on: LiTryS; design: method as in ref 25, 26 = [25]; PMID 27070550; doi:10.1371/journal.pntd.0004617; 25 Benítez D , Medeiros A , Fiestas L , Panozzo-Zenere EA , Maiwald F , Prousis KC , et al . Identification of novel chemical scaffolds inhibiting trypanothione synthetase from pathogenic trypanosomat || [26]; PMID 32588679; doi:10.1080/14756366.2020.1780227; 26 Medeiros A , Benítez D , Korn RS , Ferreira VC , Barrera E , Carrión F , et al . Mechanistic and biological characterisation of novel N 5 -substituted paullones targeting the biosynthesis of trypan; settings: versus substrates Spd, Gsp, ATP, GSH; cited from earlier work
[6] = tested on: trypanothione synthetase of T. b. brucei (TbTryS); design: method as in PMID 27070550; settings: cited from earlier work
[7] = tested on: bloodstream form of T. b. brucei strain 427; design: method as in PMID 27070550; settings: displayed for comparison, read-out: T. b. brucei (BS) [EC50; cited from earlier work
[8] = target: T1, trypanothione synthetase of L. infantum (LiTryS); settings: Fig 3, known paullones; cited from earlier work
[9] = tested on: L. infantum amastigotes (intracellular, in J774.A1 macrophages); test: Viability assay for L. infantum amastigotes; assay type: cell-based; settings: Leishmania infantum, J774.A1, 24 h, read-out: L. infantum amastigote viability [% at 20 μM]
Summary of the method: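 Luciferase-expressing L. infantum metacyclic promastigotes (MHOM/MA/67/ITMAP263) infected J774.A1 murine macrophages at 1:10 for 24 h at 37 °C, 5% CO2. After compound treatment, a further 24 h incubation followed. Percent amastigote viability, in triplicate, was normalised to host-cell density by a propidium iodide correction factor.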

[10] = tested on: TryS; design: method as in Torrie et al. 18; settings: ref Torrie et al. 18; cited from earlier work

SMILES	solubility kinetic at 10 s [1] [M]	activity at 30 µM [2] [%]	solubility thermodynamic at 72 h [3] [M]	viability at 20 µM [9] [%]	also measured
CON=C1CCC(=O)N(CC(=O)N2CCCC2)c2ccccc21 (mixture of isomers) [5c, (E/Z)-5-(Methoxyimino)-1-[2-oxo-2-(pyrrolidin-1-yl)ethyl]-1,3,4,5-tetrahydro-2H-benzo[b]azepin-2-one]	> 0.00398	86.9 ± 3.6	0.0263		
CNCCNC(=O)CN1C(=O)Cc2c([nH]c3ccc(Br)cc23)-c2ccccc21 [1b]					CfTryS inhibition at 10 μM compound concentration [4]: 92%
CNCCNC(=O)CN1C(=O)Cc2c([nH]c3ccc(Br)cc23)-c2ccc(Cl)cc21 [1c]					inhibition mechanism on LiTryS [5]: competitive to Spd and Gsp, and uncompetitive to ATP and GSH; TbTryS activity [% at 30 μM] ([6]; 30 μM, displayed for comparison): 41.0 ± 6.0%; IC50 ([6]; used as inhibition control, read-out: concentration that inhibited 50% TryS activity (TbTryS)): 30 µM; EC50 [7]: 4.3 ± 0.7 µM
NCCNC(=O)CN1C(=O)Cc2c([nH]c3ccc(Br)cc23)-c2ccc(Cl)cc21 [1d]					IC50 [8]: 0.3 µM
O=C(CN1C(=O)CCCc2ccccc21)N1CCCC1 [2j, 1-[2-Oxo-2-(pyrrolidin-1-yl)ethyl]-1,3,4,5-tetrahydro-2H-benzo[b]-azepin-2-one]	> 0.00398	100 ± 6.6	> 0.049		
Cl.Cl.O=C(CN1C(=O)CCCc2ccccc21)NCCN1CCNCC1 [2o, 2-(2-Oxo-2,3,4,5-tetrahydro-1H-benzo[b]azepin-1-yl)-N-[2-(piperazin-1-yl)ethyl]acetamide dihydrochloride]	> 0.001	98.8 ± 18.7	> 0.248	98.4 ± 11.8	
CC1(C)CCc2ccccc2N(CC(=O)NCCN2CCNCC2)C1=O.Cl.Cl [3d, 2-(3,3-Dimethyl-2-oxo-2,3,4,5-tetrahydro-1H-benzo[b]azepin-1-yl)-N-[2-(piperazin-1-yl)ethyl]acetamide dihydrochloride]	> 0.002	100 ± 5.1	> 0.114	78.1 ± 14.4	
Cl.Cl.O=C(CN1C(=O)Cc2ccccc2-c2ccccc21)NCCN1CCNCC1 [4d, 2-(6-Oxo-6,7-dihydro-5H-dibenzo[b,d]azepin-5-yl)-N-[2-(piperazin-1-yl)ethyl]acetamide dihydrochloride]	> 0.0002	99.5 ± 3.1	> 0.0562	89.5 ± 2.8	
CN1CCN(CCCN2c3ccccc3Sc3ccc(Cl)cc32)CC1 [prochlorperazine]					mode of TryS inhibition [10]: Spd competitive behaviour
